Experimental data: PMC8953427, “Enantioselectivity of Pentedrone and Methylone on Metabolic Profiling in 2D and 3D Human Hepatocyte-like Cells” (Pharmaceuticals, 2022)

Key:
SH-SY5Y cells = tested on: SH-SY5Y cells; design: method as in PMID 33609514; conditions: cited from earlier work
3D-HLCs = test: Metabolite formation in 3D-HLCs by GC-MS; assay type: in vitro ADME, human; conditions: 1 mM, 6 h
Method: (§1) Regarding the study of methylone and pentedrone metabolite biosynthesis, in 2D-HLCs and 3D-HLCs, at the D17 of the HLCs differentiation, the cells were seeded in 6-well plates in 1 mL of culture medium at a density of 2.0 × 10^5 cells/well and 5.0 × 10^5 cells/well in 2D and 3D cultures, respectively. At D34, 2D-HLCs and 3D-HLCs were exposed to 1 mM of each enantiomer diluted in IMDM. Upon 6 h of incubation, the IMDM was removed and the pellets were quenched with 2 mL of ice-cold acetonitrile and scraped. The quenched solutions were centrifuged for 10 min at 4 °C. After the addition of methcathinone (internal standard) 100 µg/mL, the supernatants were derivatized with TFAA and analyzed by GC–MS [2, 41].
(§2) To study pentedrone and methylone metabolic profiles, we set up a methodology for the identification of pentedrone and methylone phase I metabolites based on a GC–MS methodology developed by Araujo et al. and Uralets et al. with some adaptations. Briefly, samples from the metabolic assays (200 μL) were evaporated to dryness under nitrogen flow. Then, 50 µL of ethyl acetate and 50 µL of TFAA (derivatizing agent) were added to the dried residue. Incubation was performed at 65 °C for 15 min. After cooling to room temperature, the extract was dried under nitrogen flow. The residue obtained was dissolved in 100 μL of ethyl acetate, and 2 μL was injected into the GC–MS apparatus.
(§3) GC–MS analysis was performed with a 436-GC model (Bruker Daltonics, Billerica, MA, USA) coupled to an EVOQ triple quadrupole mass spectrometer (Bruker Daltonics) and a Bruker MS workstation software version 8.2. The chromatographic separation was accomplished using a fused silica capillary column (Rxi-5Sil MS; 30 m × 0.25 mm × 0.25 μm; Restek Corporation, U.S., Bellefonte, PA, USA). The carrier gas was helium C-60 (Gasin, Portugal), at a constant flow of 1 mL/min. Injections were performed in split mode, with a ratio of 1/20. The injector port was heated to 250 °C. The initial column temperature was 80 °C, followed by a temperature increase of 15 °C/min to 150 °C and 10 °C/min to 300 °C. The MS detector was operated in EI mode (70 eV). The temperature of the transfer line, manifold and EI were 280, 40, and 270 °C, respectively. Data acquisition was performed in full scan mode with a mass range between 50 and 800 m/z at a scan rate of 8 scans/s. The emission current was 40 µA. Ionization was maintained off during the first 1.5 min to avoid solvent overloading. Total separation run time was 20 min.
The analysis was initially performed in full scan mode. […]

2D-HLCs = test: Metabolite formation in 2D-HLCs by GC-MS; assay type: in vitro ADME, human; conditions: 1 mM, 6 h
Method: as §1, §2, §3
The analysis was initially performed in full scan mode. […] For that, specific metabolites of methylone and pentedrone, already identified in previous studies, were selected to postulate their mass fragmentation according to their chemical structures (Figure 11) for posterior analysis using the specific ions (m/z in SIM mode) to identify and confirm the metabolite peaks. In SIM mode the selected m/z ions were: IS—m/z 77, 105, 110, and 154; methylone—m/z 121, 149, 154, and 303; nor-methylone—m/z 121, 140, 149, 168, 289, and 260; dihydromethylone—m/z 121, 154, 247, 280, and 401; DHMC—m/z 154, 182, 209, 237, and 391; N-hydroxymethylone—m/z 121, 149, 170, 198, and 319; nor-pentedrone—m/z 77, 105, 126, 168, and 273; dihydropentedrone—m/z 140, 182, 203, 272, and 385; and pentedrone—m/z 77, 105, 140, and 182.

[1] = tested on: 3D-HLCs (human stem-cell-derived hepatocyte-like cells); test: Cell viability (CellTiter-Glo 3D) in 3D spheroid HLCs; assay type: cell-based; conditions: 24 h; for concentrations at which cytotoxicity was observed: racemate, 3D-HLCs, compared to control cells
Method: (§4) The hnMSCs isolated from human umbilical cord stroma were fully characterized as described elsewhere and expanded in Eagle’s minimum essential medium—alpha modification (α-MEM) supplemented with 10% (v/v) of fetal bovine serum (FBS; Gibco, Paisley, UK). For generating HLCs, a three-step differentiation protocol was applied to hnMSCs, as detailed previously. Briefly, hnMSCs were seeded at a density of 1.5 × 10^5 cells/cm^2 in a rat-tail collagen (0.2 mg/mL) coated surface plates. At day 17 (D17) of differentiation, cells were trypsinized and reinoculated in Iscove’s modified Dulbecco’s medium (IMDM) with 8 ng/mL oncostatin M (OSM; Peprotech, Rocky Hill, NJ, USA), 1 µM dexamethasone, 1% dimethyl sulfoxide (DMSO) and 1% insulin-transferrin-selenium solution (Gibco, Grand Island, NY, USA), 20 µM of 5-azacytidine, and 5% (v/v) FBS into (i) ultra-low attachment (ULA; VWR International, Radnor, PA, USA) plates (5 × 10^5 cells/mL) to obtain a 3D spheroid culture or (ii) 2D culture plates pre-coated with collagen (2 × 10^4 cells/cm^2). Medium was changed 24 h after inoculation to remove 5-azacytidine and FBS. Cells were maintained until D34 in this medium, which was replaced every 3 days.
(§5) The cytotoxicity of the racemic mixtures (0.25, 0.5, 1.0, 2.0, 3.0, 4.0, 6.0, 8.0, 10.0, and 20.0 mM) and enantiomers (0.5 and 1.0 mM) of pentedrone and methylone were evaluated in both 2D monolayer and 3D spheroid cultures of HLCs, maintained as described above with slight changes. Briefly, at D17 of differentiation, cells were seeded in 96-well plates in 200 μL of culture medium at a density of 6.4 × 10^3 cells/well and 1.6 × 10^4 cells/well in 2D and 3D cultures, respectively. At D34, HLCs cultured in 2D and 3D were exposed to the abovementioned racemic mixtures and enantiomers diluted in IMDM. Cell viability was measured upon 24 h of incubation with the compounds using the CellTiter-Glo® 3D Cell Viability Assay (Promega, Madison, WI, USA), according to manufacturer instructions. Five percent DMSO was used as negative control and IMDM as positive control. IC50 was calculated for the racemic mixtures using a nonlinear regression fit for the Log10 transformation of the concentration values by using GraphPad Prism version 7.0 (GraphPad Software, La Jolla, CA, USA). Three independent experiments were performed.

Caco-2 cell monolayer = tested on: Caco-2 cell monolayer; design: method as in PMID 32234388; conditions: cited from earlier work
[2] = tested on: primary rat hepatocytes (PRH); conditions: read-out: EC50 (cytotoxic effects), racemic; cited from earlier work
[3] = tested on: human liver microsomes (HLM); test: Metabolism in ultra-pool human liver microsomes by GC-MS; assay type: in vitro ADME; conditions: HLM 1 mg protein/mL, 50 µM enantiomer, 0-60 min
Method: The metabolism of methylone and pentedrone was initially evaluated by incubation with ultra-pool human liver microsomes (HLM) at a final assay concentration of 1 mg protein/mL. All experiments were performed in duplicate. The incubation mixture with the HLM consisted of 1.3 mM NADP^+, 3.3 mM glucose-6-phosphate, 3.3 mM MgCl2, 0.4 IU/mL glucose-6-phosphate dehydrogenase, and 0.05 mM sodium citrate in 0.1 M phosphate buffer at pH 7.4. The incubation mixture with each drug was pre-incubated 10 min at 37 °C before the experiment was started with the addition of the HLM. All microsomes assays were incubated with 50 µM of each enantiomer in a final volume of 1 mL at 37 °C. At the time points 0, 5, 10, 20, 30, 40, 50, and 60 min, 100 µL aliquots of the incubations were quenched with 100 µL of ice-cold acetonitrile and methcathinone (internal standard) 100 µg/mL. The quenched solutions were centrifuged for 10 min at 4 °C and the supernatants were extracted with ethyl acetate after previous pH correction (pH = 11 for pentedrone and pH = 13 for methylone).
To study pentedrone and methylone metabolic profiles, we set up a methodology for the identification of pentedrone and methylone phase I metabolites based on a GC–MS methodology developed by Araujo et al. and Uralets et al. with some adaptations. […]

[4] = Cell viability (CellTiter-Glo 3D) in 3D spheroid HLCs; assay type: cell-based, human; conditions: human; racemate, 3D-HLCs, 24 h exposure, 0-20.0 mM; read-out: EC50 (cytotoxicity)
Method: as §4, §5

[5] = tested on: 2D-HLCs (human stem-cell-derived hepatocyte-like cells); test: Cell viability (CellTiter-Glo 3D) in 2D monolayer HLCs; assay type: cell-based; conditions: racemate, 24 h, 0-20.0 mM
Method: as §4, §5

[6] = as above; assay type: cell-based, human; conditions: human; racemate, 2D-HLCs, 24 h exposure, 0-20.0 mM; read-out: EC50 (cytotoxicity)
Method: as §4, §5

[7] = tested on: human liver microsomes (HLM); conditions: cited from earlier work
[8] = cited from earlier work

Row | Compound | enantioselectivity in cytotoxicity (SH-SY5Y cells) | preferential metabolic route of the enantiomer (3D-HLCs) | preferential metabolic route of the enantiomer (2D-HLCs) | enantioselectivity in intestinal absorption (permeability) (Caco-2 cell monolayer) | metabolite with the highest formation (3D-HLCs) | EC50 [2] [mM] | metabolite with the highest formation (2D-HLCs) | phase I metabolites identified [3] | concentrations at which cytotoxicity was observed [1] | EC50 at 24 h [4] [mM] | cytotoxicity compared to control cells [5] | EC50 at 24 h [6] [mM] | liver-to-blood ratio [8] | further results
1 | CN[C@H](C)C(=O)c1ccc2c(c1)OCO2 [R-(+)-methylone] | most cytotoxic | preferentially metabolized by all metabolic routes, except for O-demethylation | preferentially metabolized by O-demethylation and N-hydroxylation |  |  |  |  |  |  |  |  |  |  | 
2 | CCC[C@@H](NC)C(=O)c1ccccc1 [R-(−)-pentedrone] |  | preferentially metabolized by β-keto reduction | preferentially metabolized by all metabolic routes | most permeable |  |  |  |  |  |  |  |  |  | enantioselectivity in cytotoxicity ([1]; enantiomers at 1 mM, 3D cultures): most cytotoxic enantiomer
3 | CCC[C@H](NC)C(=O)c1ccccc1 [S-(+)-pentedrone] | most cytotoxic |  |  |  |  |  |  |  |  |  |  |  |  | 
4 | CNC(C)C(=O)c1ccc2c(c1)OCO2 (centres unmarked) [methylone] |  |  |  |  | N-Hydroxymethylone | 1.6 | N-Hydroxymethylone | N-hydroxymethylone, DHMC, dihydromethylone, and nor-methylone | > 3000 µM | 5.2 | significant cytotoxicity for all concentrations tested | 4.8 | ≤ 3 | enzymes metabolizing the drug [7]: initially metabolized by CYP2D6, with minor contributions of CYP1A2, CYP2B6, and CYP2C19
5 | CCCC(NC)C(=O)c1ccccc1 (centres unmarked) [pentedrone] |  |  |  |  | dihydropentedrone | 0.7 | dihydropentedrone | dihydropentedrone and nor-pentedrone | higher than 1.0 mM | 3.6 | significant cytotoxicity for all concentrations tested | 2.8 | up to 11 | 
6 | S-(−)-methylone |  |  | preferentially metabolized via N-demethylation | most permeable |  |  |  |  |  |  |  |  |  | 
